Source: patent publication US9365522B2, “Pyrazole amide derivative” (AMGEN INC., priority 2015, dated 2016)

Biological target: T1, human RORγ-LBD (Homo sapiens, UniProt P51449)
T1 construct: made in house; host or cells: E. coli (BL-21)
T1 sequence (P51449 262-518): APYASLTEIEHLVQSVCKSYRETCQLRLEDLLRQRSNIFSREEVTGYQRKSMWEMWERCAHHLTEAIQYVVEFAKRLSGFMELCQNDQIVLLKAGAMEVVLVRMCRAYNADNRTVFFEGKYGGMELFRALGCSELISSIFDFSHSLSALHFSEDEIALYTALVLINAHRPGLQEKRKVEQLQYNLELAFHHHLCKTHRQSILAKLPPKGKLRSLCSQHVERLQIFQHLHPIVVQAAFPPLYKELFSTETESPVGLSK
Test: ROR gamma coactivator peptide recruitment Alphascreen assay (RORγ-LBD binding to GRIP1 coactivator peptide)
Assay type: biochemical
Settings: 5 nM human RORγ-LBD, 30 nM 7-β-hydroxycholesterol, 50 nM biotinylated GRIP1 coactivator peptide, overnight incubation at room temperature; read-out: result (pIC50, RORγ coactivator peptide recruitment Alphascreen assay) (converted)
How it was run: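 Alphascreen proximity read-out after overnight room-temperature incubation, yielding pIC50 from 1-in-2 compound series (2.5% DMSO final). Mixture: 50 nM biotin-GRIP1 peptide, 30 nM 7-β-hydroxycholesterol agonist, 5 nM recombinant 6×His:Flag human RORγ-LBD (aa 262-518), 50 mM HEPES pH 7.4.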

SMILES	IC50 [nM]
Cc1cc(Cl)c(C(=O)CN(CC2(C)COC2)C(=O)c2cnn([C@H]3CC[C@](C)(C(=O)O)CC3)c2C(F)(F)F)c(Cl)c1 [Example 676, trans-4-(4-((2-(2,6-dichloro-4-methylphenyl)-2-oxoethyl)((3-methyl-3-oxetanyl)methyl)carbamoyl)-5-(trifluoromethyl)-1H-pyrazol-1-yl)-1-methylcyclohexanecarboxylic acid]	51.3
C[C@]1(C(=O)O)CC[C@H](n2ncc(C(=O)N(CC(=O)c3c(Cl)cncc3Cl)[C@H]3C[C@@H]4CC[C@H]3C4)c2C(F)(F)F)CC1 [Example 677, trans-4-(4-((1S,2R,4R)-bicyclo[2.2.1]hept-2-yl(2-(3,5-dichloro-4-pyridinyl)-2-oxoethyl)carbamoyl)-5-(trifluoromethyl)-1H-pyrazol-1-yl)-1-methylcyclohexanecarboxylic acid]	5.62
Cc1cc(Cl)c(C(=O)CN(C(=O)c2cnn([C@H]3CC[C@](C)(C(=O)O)CC3)c2C(F)(F)F)[C@H]2C[C@@H]3CC[C@H]2C3)c(Cl)c1 [Example 678, trans-4-(4-((1S,2S,4R)-bicyclo[2.2.1]hept-2-yl(2-(2,6-dichloro-4-methylphenyl)-2-oxoethyl)carbamoyl)-5-(trifluoromethyl)-1H-pyrazol-1-yl)-1-methylcyclohexanecarboxylic acid]	1.07
CC1(C)CC[C@H](CN(CCc2c(Cl)cncc2Cl)C(=O)c2cnn([C@H]3CC[C@](C)(C(=O)O)CC3)c2C(F)(F)F)O1 [Example 679, trans-4-(4-((2-(3,5-dichloro-4-pyridinyl)ethyl)(((2R)-5,5-dimethyltetrahydro-2-furanyl)methyl)carbamoyl)-5-(trifluoromethyl)-1H-pyrazol-1-yl)-1-methylcyclohexanecarboxylic acid]	12
CC1(C)CC[C@@H](CN(CCc2c(Cl)cncc2Cl)C(=O)c2cnn([C@H]3CC[C@](C)(C(=O)O)CC3)c2C(F)(F)F)O1 [Example 680, trans-4-(4-((2-(3,5-dichloro-4-pyridinyl)ethyl)(((2S)-5,5-dimethyltetrahydro-2-furanyl)methyl)carbamoyl)-5-(trifluoromethyl)-1H-pyrazol-1-yl)-1-methylcyclohexanecarboxylic acid]	47.9
C[C@]1(CN(CCc2c(Cl)cncc2Cl)C(=O)c2cnn([C@H]3CC[C@](C)(C(=O)O)CC3)c2C(F)(F)F)CCCO1 [Example 681, trans-4-(4-((2-(3,5-dichloro-4-pyridinyl)ethyl)(((2R)-2-methyltetrahydro-2-furanyl)methyl)carbamoyl)-5-(trifluoromethyl)-1H-pyrazol-1-yl)-1-methylcyclohexanecarboxylic acid]	9.55
C[C@@]1(CN(CCc2c(Cl)cncc2Cl)C(=O)c2cnn([C@H]3CC[C@](C)(C(=O)O)CC3)c2C(F)(F)F)CCCO1 [Example 682, trans-4-(4-((2-(3,5-dichloro-4-pyridinyl)ethyl)(((2S)-2-methyltetrahydro-2-furanyl)methyl)carbamoyl)-5-(trifluoromethyl)-1H-pyrazol-1-yl)-1-methylcyclohexanecarboxylic acid]	50.1
C[C@@H]1C[C@H](n2ncc(C(=O)N(CC(=O)c3c(Cl)cccc3Cl)CC3CC(C)(C)C3)c2C(F)(F)F)CC[C@@H]1C(=O)O [Example 683, (1S,2R,4R)-4-(4-((2-(2,6-dichlorophenyl)-2-oxoethyl)((3,3-dimethylcyclobutyl)methyl)carbamoyl)-5-(trifluoromethyl)-1H-pyrazol-1-yl)-2-methylcyclohexanecarboxylic acid]	8.91
C[C@H]1C[C@@H](n2ncc(C(=O)N(CC(=O)c3c(Cl)cccc3Cl)CC3CC(C)(C)C3)c2C(F)(F)F)CC[C@H]1C(=O)O [Example 684, (1R,2S,4S)-4-(4-((2-(2,6-dichlorophenyl)-2-oxoethyl)((3,3-dimethylcyclobutyl)methyl)carbamoyl)-5-(trifluoromethyl)-1H-pyrazol-1-yl)-2-methylcyclohexanecarboxylic acid]	13.8
CC1(C)C[C@H](CN(CC(=O)c2c(Cl)cncc2Cl)C(=O)c2cnn([C@H]3CC[C@](C)(C(=O)O)CC3)c2C(F)(F)F)O1 [Example 685, trans-4-(4-((2-(3,5-dichloro-4-pyridinyl)-2-oxoethyl)(((2R)-4,4-dimethyl-2-oxetanyl)methyl)carbamoyl)-5-(trifluoromethyl)-1H-pyrazol-1-yl)-1-methylcyclohexanecarboxylic acid]	97.7
CC1(C)C[C@@H](CN(CC(=O)c2c(Cl)cncc2Cl)C(=O)c2cnn([C@H]3CC[C@](C)(C(=O)O)CC3)c2C(F)(F)F)O1 [Example 686, trans-4-(4-((2-(3,5-dichloro-4-pyridinyl)-2-oxoethyl)(((2S)-4,4-dimethyl-2-oxetanyl)methyl)carbamoyl)-5-(trifluoromethyl)-1H-pyrazol-1-yl)-1-methylcyclohexanecarboxylic acid]	91.2
Cc1cc(Cl)c(C(=O)CN(CC(C)(C)C)C(=O)c2cnn([C@H]3CC[C@](C)(C(=O)O)CC3)c2C(F)(F)F)c(Cl)n1 [Example 687, trans-4-(4-((2-(2,4-dichloro-6-methyl-3-pyridinyl)-2-oxoethyl)(2,2-dimethylpropyl)carbamoyl)-5-(trifluoromethyl)-1H-pyrazol-1-yl)-1-methylcyclohexanecarboxylic acid]	14.8
CC1(C)C[C@H](Cc2c(Cl)cncc2Cl)N(C(=O)c2cnn([C@H]3CC[C@](C)(C(=O)O)CC3)c2C(F)(F)F)C1 [Example 688]	110
Cc1cc(Cl)c(C(=O)CN(C(=O)c2cnn([C@H]3CC[C@](C)(C(=O)O)CC3)c2C(F)(F)F)[C@H]2C[C@@H](C(C)(C)C)C2)c(Cl)c1 [Example 689, trans-4-(4-((2-(2,6-dichloro-4-methylphenyl)-2-oxoethyl)(cis-3-(2-methyl-2-propanyl)cyclobutyl)carbamoyl)-5-(trifluoromethyl)-1H-pyrazol-1-yl)-1-methylcyclohexanecarboxylic acid]	4.17
C[C@]1(C(=O)O)CC[C@H](n2ncc(C(=O)N(CC(=O)c3c(Cl)cc(F)cc3Cl)CC3(F)CC3)c2C(F)(F)F)CC1 [Example 690, trans-4-(4-((2-(2,6-dichloro-4-fluorophenyl)-2-oxoethyl)((1-fluorocyclopropyl)methyl)carbamoyl)-5-(trifluoromethyl)-1H-pyrazol-1-yl)-1-methylcyclohexanecarboxylic acid]	6.76

Continued, values first:

IC50 [nM]	SMILES
1.66	CC1(CN(CC(=O)c2c(Cl)cc(F)cc2Cl)C(=O)c2cnn([C@H]3CC[C@](C)(C(=O)O)CC3)c2C(F)(F)F)CCC1 [Example 691, trans-4-(4-((2-(2,6-dichloro-4-fluorophenyl)-2-oxoethyl)((1-methylcyclobutyl)methyl)carbamoyl)-5-(trifluoromethyl)-1H-pyrazol-1-yl)-1-methylcyclohexanecarboxylic acid]
3.24	CC(C)(CN(CC(=O)c1c(Cl)cncc1Cl)C(=O)c1cnn([C@H]2CC[C@](C)(C(=O)O)CC2)c1C(F)(F)F)C(F)(F)F [Example 692, trans-4-(4-((2-(3,5-dichloro-4-pyridinyl)-2-oxoethyl)(3,3,3-trifluoro-2,2-dimethylpropyl)carbamoyl)-5-(trifluoromethyl)-1H-pyrazol-1-yl)-1-methylcyclohexanecarboxylic acid]
43.7	Cc1cc(C)c(C(=O)CN(CC(C)(C)C)C(=O)c2cnn([C@H]3CC[C@](C)(C(=O)O)CC3)c2C(F)(F)F)c(Cl)n1 [Example 693, trans-4-(4-((2-(2-chloro-4,6-dimethyl-3-pyridinyl)-2-oxoethyl)(2,2-dimethylpropyl)carbamoyl)-5-(trifluoromethyl)-1H-pyrazol-1-yl)-1-methylcyclohexanecarboxylic acid]
3.98	C[C@]1(C(=O)O)CC[C@H](n2ncc(C(=O)N(CC(=O)c3c(Cl)cc(F)cc3Cl)CC3CCC3)c2C(F)(F)F)CC1 [Example 694, trans-4-(4-((cyclobutylmethyl)(2-(2,6-dichloro-4-fluorophenyl)-2-oxoethyl)carbamoyl)-5-(trifluoromethyl)-1H-pyrazol-1-yl)-1-methylcyclohexanecarboxylic acid]
10	C[C@]1(C(=O)O)CC[C@H](n2ncc(C(=O)N(CC(=O)c3c(Cl)cc(F)cc3Cl)CC3CC3)c2C(F)(F)F)CC1 [Example 695, trans-4-(4-((cyclopropylmethyl)(2-(2,6-dichloro-4-fluorophenyl)-2-oxoethyl)carbamoyl)-5-(trifluoromethyl)-1H-pyrazol-1-yl)-1-methylcyclohexanecarboxylic acid]
1.62	CC1(CN(CC(=O)c2c(Cl)cc(F)cc2Cl)C(=O)c2cnn([C@H]3CC[C@](C)(C(=O)O)CC3)c2C(F)(F)F)CCCCC1 [Example 696, trans-4-(4-((2-(2,6-dichloro-4-fluorophenyl)-2-oxoethyl)((1-methylcyclohexyl)methyl)carbamoyl)-5-(trifluoromethyl)-1H-pyrazol-1-yl)-1-methylcyclohexanecarboxylic acid]
12.9	CC(C)(C)CN(CC(=O)c1c(Cl)cnc(Cl)c1Cl)C(=O)c1cnn([C@H]2CC[C@](C)(C(=O)O)CC2)c1C(F)(F)F [Example 697, trans-4-(4-((2,2-dimethylpropyl)(2-oxo-2-(2,3,5-trichloro-4-pyridinyl)ethyl)carbamoyl)-5-(trifluoromethyl)-1H-pyrazol-1-yl)-1-methylcyclohexanecarboxylic acid]
